Results from patent publication US10668052B2, “Combinations of isomers of dihydrotetrabenazine” (ADEPTIO PHARMACEUTICALS LIMITED, priority 2017, dated 2020).
“Also recorded” adds a separate entry of the source. Where two headings read alike, the source gives them in different places.

Key:
[1] = molecular target: Chromaffin Granule Monoamine Transporter (Bos taurus, UniProt Q27963); conditions: racemic isomers, in vitro; cited from earlier work
[2] = Pharmacokinetic study of tetrabenazine and dihydrotetrabenazine metabolites in plasma after oral tetrabenazine 25 mg tablets; type: in vivo, human; conditions: for metabolite of tetrabenazine in humans (major/minor): after administration of tetrabenazine; for Cmax / AUC / Tmax / AUC(0-t) / AUC(0-inf) / half-life: human, plasma; for AUC: read-out: area under the curve (AUC); for Tmax: N=08, healthy adult male volunteers; for AUC(0-t): po; for Kel: unit inferred
Protocol: A pharmacokinetic study was carried out in healthy adult male volunteers under fasting conditions at a dose of single and multiple oral administration of 25 mg tablets once a day to ascertain the plasma levels of +/−α and +/−β dihydrotetrabenazine.
Table 1 summarises the pharmacokinetic data obtained following single-dose oral administration of tetrabenazine at a dose level of 25 mg (fasting, N=08).
Table 2 summarises the pharmacokinetic data obtained following multiple-dose oral administration of tetrabenazine at a dose level of 25 mg (fasting, N=07).

[3] = system: amphetamine induced locomotor activity in male CD rats; conditions: for total distance travelled: normalised
Protocol: Male CD (Charles River Laboratories, Germany) at weight range of 200-250 g (165-200 g upon arrival) were used for the experiments. Animals were housed at a standard temperature (22±1° C.) and in a light-controlled environment (lights on from 7 am to 8 pm) with ad libitum access to food and water.
The locomotor activity of the rats was tested in an open field arena. The open field test was performed during the rat light cycle and under a normal lighting evenly distributed to the test chambers. The paths of the rats were recorded by activity monitor (Med. Associates Inc.).
The rats were placed in the centre of the arena, and the path was recorded for 30 minutes. After 30 minutes of testing, vehicle or amphetamine was dosed and the rat was placed in the centre of the arena, and the path was recorded for 60 minutes, the total testing time being 90 minutes.

[4] = oral, 25 mg, single dose study, tetrabenazine to adult male humans
[5] = single-dose oral tetrabenazine 25 mg, fasting
[6] = male, 25 mg, multiple-dose oral tetrabenazine 25 mg once a day, fasting, N=07
[7] = male, 25 mg, single-dose oral tetrabenazine 25 mg, fasting, N=08
[8] = male, single-dose oral tetrabenazine 25 mg, fasting, N=08
[9] = multiple-dose oral tetrabenazine 25 mg once a day, fasting, N=07
[10] = single-dose oral tetrabenazine 25 mg, fasting, N=08
[11] = Study 4, 1 mg/kg, compared to vehicle-amphetamine group
[12] = Study 6, each isomer 1 mg/kg, risperidone 1 mg/kg, compared to vehicle-amphetamine group, unnormalised

Chromaffin Granule Monoamine Transporter, sequence (Q27963 whole entry): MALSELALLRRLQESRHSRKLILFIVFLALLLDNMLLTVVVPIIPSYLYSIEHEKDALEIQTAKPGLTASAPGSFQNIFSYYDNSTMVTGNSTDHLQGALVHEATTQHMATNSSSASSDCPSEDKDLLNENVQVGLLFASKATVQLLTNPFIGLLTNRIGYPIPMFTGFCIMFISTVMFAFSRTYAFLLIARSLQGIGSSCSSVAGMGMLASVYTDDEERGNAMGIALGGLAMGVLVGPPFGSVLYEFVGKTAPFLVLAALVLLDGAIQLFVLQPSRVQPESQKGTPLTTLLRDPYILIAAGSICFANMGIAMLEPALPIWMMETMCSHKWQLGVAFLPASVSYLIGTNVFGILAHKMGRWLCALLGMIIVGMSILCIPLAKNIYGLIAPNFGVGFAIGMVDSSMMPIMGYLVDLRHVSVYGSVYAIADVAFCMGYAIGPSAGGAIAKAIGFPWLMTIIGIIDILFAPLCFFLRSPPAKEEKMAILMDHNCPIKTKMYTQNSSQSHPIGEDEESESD

Row | Cmax [2, 4] | AUC [2, 4] | Tmax [2, 5] | AUC(0-t) [2, 6] | AUC(0-t) [2, 7] | AUC(0-inf) [2, 8] | Cmax [2, 8] | half-life [2, 8] | Cmaxss [2, 9] | Cminss [2, 9] | Ctss [2, 9] | Tmaxss Mean [2, 9] | Extrapolated AUC [2, 10] | Kel [2, 10] | Molecule | further results
1 | 72.9 ng/mL | 306 ng·h/mL | 0.938 h | 474 ng·h/mL | 306 ng·h/mL | 352 ng·h/mL | 72.9 ng/mL | 7.89 h | 98.34 ng/mL | 5.61 ng/mL | 6.10 ng/mL | 96.96 h | 10.59% | 0.1 h⁻¹ | COc1cc2c(cc1OC)[C@@H]1C[C@H](O)[C@@H](CC(C)C)CN1CC2 [(−)-α-DHTBZ, (2S,3S,11bS)-3-isobutyl-9,10-dimethoxy-1,3,4,6,7,11b-hexahydro-2H-pyrido[2,1,a]isoquinolin-2-ol] | metabolite of tetrabenazine in humans (major/minor) ([2]; listed as (−)-α-dihydrotetrabenazine): major metabolites; also recorded: main metabolites; total stereotypic behaviour ([3]; Study 1, 2.5 mg/kg, compared to vehicle-amphetamine group): did not lead to lower locomotor activity or reduced stereotypic behaviour; total distance travelled / locomotor activity ([3]; Study 1, 2.5 mg/kg, compared to vehicle-amphetamine group, listed as (−)-α-isomer, 2.5 mg/kg): very little, if any, reduction in induced locomotor activity; total distance travelled ([3]; Study 1, 2.5 mg/kg, compared to vehicle-vehicle group): significantly different; observed behaviour of the rats ([3]; rat, in vivo, 2.5 mg/kg): less focused on what was going on around them
2 | 2.61 ng/mL | 7.98 ng·h/mL | 1.16 h | 13.7 ng·h/mL | 7.98 ng·h/mL | 10.8 ng·h/mL | 2.61 ng/mL | 4.79 h | 3.31 ng/mL | 0.00 ng/mL | 0.44 ng/mL | 97.18 h | 32.10% | 0.17 h⁻¹ | COc1cc2c(cc1OC)[C@H]1C[C@@H](O)[C@H](CC(C)C)CN1CC2 [(+)-α-DHTBZ, (2R,3R,11bR)-3-isobutyl-9,10-dimethoxy-1,3,4,6,7,11b-hexahydro-2H-pyrido[2,1,a]isoquinolin-2-ol] | metabolite of tetrabenazine in humans (major/minor) [2]: minor metabolites
3 | 103 ng/mL | 376 ng·h/mL | 1.12 h | 599 ng·h/mL | 376 ng·h/mL | 410 ng·h/mL | 103 ng/mL | 5.8 h | 144.76 ng/mL | 5.45 ng/mL | 5.54 ng/mL | 97.11 h | 5.03% | 0.13 h⁻¹ | COc1cc2c(cc1OC)[C@H]1C[C@H](O)[C@H](CC(C)C)CN1CC2 [(+)-β-DHTBZ, (2S,3R,11bR)-3-isobutyl-9,10-dimethoxy-1,3,4,6,7,11b-hexahydro-2H-pyrido[2,1,a]isoquinolin-2-ol] | metabolite of tetrabenazine in humans (major/minor) ([2]; listed as (+)-β-dihydrotetrabenazine): major metabolites; also recorded: main metabolites

Continued, molecule first:

Row | Molecule | Cmax [2, 4] | AUC [2, 4] | Tmax [2, 5] | AUC(0-t) [2, 6] | AUC(0-t) [2, 7] | AUC(0-inf) [2, 8] | Cmax [2, 8] | half-life [2, 8] | Cmaxss [2, 9] | Cminss [2, 9] | Ctss [2, 9] | Tmaxss Mean [2, 9] | Extrapolated AUC [2, 10] | Kel [2, 10] | further results
4 | α-dihydrotetrabenazine | – | – | – | – | – | – | – | – | – | – | – | – | – | – | affinity relative to the β-isomer [1]: 3- to 4 fold
5 | COc1cc2c(cc1OC)C1CC(=O)C(CC(C)C)CN1CC2 (racemic) [Tetrabenazine, 1,3,4,6,7,11b-hexahydro-9,10-dimethoxy-3-(2-methylpropyl)-2H-benzo(a)quinolizin-2-one] | – | – | 0.87 h | 2.79 ng·h/mL | 1.87 ng·h/mL | 2.42 ng·h/mL | 0.58 ng/mL | 4.35 h | 0.73 ng/mL | 0.01 ng/mL | – | 96.89 h | 27.54% | 0.19 h⁻¹ | –
6 | Cc1nc2n(c(=O)c1CCN1CCC(c3noc4cc(F)ccc34)CC1)CCCC2 [risperidone, reference compound] | – | – | – | – | – | – | – | – | – | – | – | – | – | – | total distance travelled ([3]; Study 1, 1 mg/kg, compared to vehicle-amphetamine group): significantly different; locomotor activity [3, 11]: lower locomotor activity; stereotypic behaviour [3, 11]: reduced stereotypic behaviour; total distance travelled / locomotor activity [3, 12]: lower locomotor activity; total stereotypic behaviour [3, 12]: reduced stereotypic behaviour
